The target of test [1] is PknA (Mycobacterium tuberculosis, UniProt P9WI83).
In test [2] the target is PknE (Mycobacterium tuberculosis, UniProt P9WI77).
In test [3] the target is PknJ (Mycobacterium tuberculosis, UniProt P9WI67).
In test [4] the target is PknD (GST-PknD) (Mycobacterium tuberculosis, UniProt P9WI79).
Test [5] deals with PknG (Mycobacterium tuberculosis, UniProt P9WI73).
For test [6], the target named is PknH (Mycobacterium tuberculosis, UniProt P9WI71).
PknH, sequence (P9WI71 whole entry): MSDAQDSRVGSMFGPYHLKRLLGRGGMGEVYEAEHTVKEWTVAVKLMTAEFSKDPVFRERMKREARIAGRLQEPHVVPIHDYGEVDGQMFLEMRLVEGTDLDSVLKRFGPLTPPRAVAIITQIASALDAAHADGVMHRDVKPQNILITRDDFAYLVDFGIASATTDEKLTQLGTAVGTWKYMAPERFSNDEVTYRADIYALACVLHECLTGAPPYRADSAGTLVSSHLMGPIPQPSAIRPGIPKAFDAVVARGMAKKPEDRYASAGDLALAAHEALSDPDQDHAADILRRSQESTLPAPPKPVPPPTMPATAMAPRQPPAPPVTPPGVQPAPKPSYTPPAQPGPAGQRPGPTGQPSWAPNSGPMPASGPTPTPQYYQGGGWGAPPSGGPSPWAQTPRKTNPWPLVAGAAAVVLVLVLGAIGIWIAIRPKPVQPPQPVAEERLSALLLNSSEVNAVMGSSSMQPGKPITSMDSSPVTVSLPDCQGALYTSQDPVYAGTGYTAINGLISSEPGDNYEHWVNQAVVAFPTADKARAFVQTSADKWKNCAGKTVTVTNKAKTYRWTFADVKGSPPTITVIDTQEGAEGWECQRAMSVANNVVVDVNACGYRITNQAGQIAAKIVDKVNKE

PknG, sequence (P9WI73 whole entry): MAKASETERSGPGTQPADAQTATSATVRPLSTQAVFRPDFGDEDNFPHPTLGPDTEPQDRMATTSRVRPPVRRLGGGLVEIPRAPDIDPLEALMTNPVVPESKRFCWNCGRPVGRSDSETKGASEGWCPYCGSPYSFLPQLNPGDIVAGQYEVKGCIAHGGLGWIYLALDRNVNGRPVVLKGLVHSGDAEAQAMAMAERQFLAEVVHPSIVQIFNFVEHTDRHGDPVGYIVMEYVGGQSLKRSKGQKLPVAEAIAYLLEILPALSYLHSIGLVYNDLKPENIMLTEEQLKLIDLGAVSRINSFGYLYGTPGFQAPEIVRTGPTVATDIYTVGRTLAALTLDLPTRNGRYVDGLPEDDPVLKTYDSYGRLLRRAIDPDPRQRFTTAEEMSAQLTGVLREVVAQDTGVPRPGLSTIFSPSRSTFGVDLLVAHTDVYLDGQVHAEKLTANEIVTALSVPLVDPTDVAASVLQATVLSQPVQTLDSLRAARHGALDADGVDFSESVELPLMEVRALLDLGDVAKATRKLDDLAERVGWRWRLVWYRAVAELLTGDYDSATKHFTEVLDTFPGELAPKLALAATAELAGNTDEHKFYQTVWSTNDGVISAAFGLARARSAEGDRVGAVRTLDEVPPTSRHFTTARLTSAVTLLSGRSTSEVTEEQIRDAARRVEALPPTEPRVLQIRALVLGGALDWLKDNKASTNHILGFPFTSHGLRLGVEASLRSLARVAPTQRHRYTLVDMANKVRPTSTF
PknE, sequence (P9WI77 whole entry): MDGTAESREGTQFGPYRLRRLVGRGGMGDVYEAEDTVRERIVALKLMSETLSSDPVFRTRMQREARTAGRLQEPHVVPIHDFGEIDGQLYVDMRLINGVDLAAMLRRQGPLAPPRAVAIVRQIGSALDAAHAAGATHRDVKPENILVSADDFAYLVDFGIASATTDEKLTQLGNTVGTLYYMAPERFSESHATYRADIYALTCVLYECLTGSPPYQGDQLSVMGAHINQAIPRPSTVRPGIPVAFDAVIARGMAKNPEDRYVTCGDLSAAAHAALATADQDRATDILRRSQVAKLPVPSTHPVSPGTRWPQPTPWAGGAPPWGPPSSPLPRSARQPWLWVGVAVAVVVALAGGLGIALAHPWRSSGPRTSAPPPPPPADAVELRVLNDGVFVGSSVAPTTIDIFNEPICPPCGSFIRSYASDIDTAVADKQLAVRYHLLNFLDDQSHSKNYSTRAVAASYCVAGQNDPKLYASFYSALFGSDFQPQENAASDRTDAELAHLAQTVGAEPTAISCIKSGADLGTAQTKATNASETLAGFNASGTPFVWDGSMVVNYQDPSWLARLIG
PknD (GST-PknD), sequence (P9WI79 whole entry): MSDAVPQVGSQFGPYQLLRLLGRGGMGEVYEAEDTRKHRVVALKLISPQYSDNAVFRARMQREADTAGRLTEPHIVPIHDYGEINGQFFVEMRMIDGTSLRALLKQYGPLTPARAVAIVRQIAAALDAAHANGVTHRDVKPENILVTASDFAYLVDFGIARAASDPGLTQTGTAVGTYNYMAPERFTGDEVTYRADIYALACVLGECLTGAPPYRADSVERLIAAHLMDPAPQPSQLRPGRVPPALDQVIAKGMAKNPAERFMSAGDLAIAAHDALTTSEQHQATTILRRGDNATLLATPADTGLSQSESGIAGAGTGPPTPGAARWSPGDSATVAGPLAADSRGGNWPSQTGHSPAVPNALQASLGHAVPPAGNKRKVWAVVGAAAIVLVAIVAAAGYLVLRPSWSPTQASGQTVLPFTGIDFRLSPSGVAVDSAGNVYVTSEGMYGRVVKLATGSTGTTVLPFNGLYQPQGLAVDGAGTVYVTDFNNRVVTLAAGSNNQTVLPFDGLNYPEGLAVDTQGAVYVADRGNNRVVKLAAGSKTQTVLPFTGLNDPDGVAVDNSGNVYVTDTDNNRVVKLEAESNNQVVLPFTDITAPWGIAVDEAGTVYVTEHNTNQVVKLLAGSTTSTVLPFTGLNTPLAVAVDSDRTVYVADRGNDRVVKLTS
PknJ, sequence (P9WI67 whole entry): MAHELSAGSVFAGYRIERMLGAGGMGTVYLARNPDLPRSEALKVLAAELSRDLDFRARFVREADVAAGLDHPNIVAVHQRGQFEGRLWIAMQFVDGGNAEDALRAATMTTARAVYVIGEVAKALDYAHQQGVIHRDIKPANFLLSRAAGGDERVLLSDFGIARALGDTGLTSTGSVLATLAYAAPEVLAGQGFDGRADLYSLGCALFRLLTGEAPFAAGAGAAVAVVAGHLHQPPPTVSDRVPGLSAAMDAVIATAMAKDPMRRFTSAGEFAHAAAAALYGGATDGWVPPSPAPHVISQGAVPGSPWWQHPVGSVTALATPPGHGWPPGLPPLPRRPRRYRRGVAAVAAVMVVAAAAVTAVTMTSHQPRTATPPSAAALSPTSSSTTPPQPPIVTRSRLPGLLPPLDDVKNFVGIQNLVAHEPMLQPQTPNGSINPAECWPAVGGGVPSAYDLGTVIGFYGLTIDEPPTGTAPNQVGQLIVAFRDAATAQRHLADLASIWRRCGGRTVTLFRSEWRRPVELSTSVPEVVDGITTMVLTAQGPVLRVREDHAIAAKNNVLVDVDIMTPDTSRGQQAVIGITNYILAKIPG
PknA, sequence (P9WI83 whole entry): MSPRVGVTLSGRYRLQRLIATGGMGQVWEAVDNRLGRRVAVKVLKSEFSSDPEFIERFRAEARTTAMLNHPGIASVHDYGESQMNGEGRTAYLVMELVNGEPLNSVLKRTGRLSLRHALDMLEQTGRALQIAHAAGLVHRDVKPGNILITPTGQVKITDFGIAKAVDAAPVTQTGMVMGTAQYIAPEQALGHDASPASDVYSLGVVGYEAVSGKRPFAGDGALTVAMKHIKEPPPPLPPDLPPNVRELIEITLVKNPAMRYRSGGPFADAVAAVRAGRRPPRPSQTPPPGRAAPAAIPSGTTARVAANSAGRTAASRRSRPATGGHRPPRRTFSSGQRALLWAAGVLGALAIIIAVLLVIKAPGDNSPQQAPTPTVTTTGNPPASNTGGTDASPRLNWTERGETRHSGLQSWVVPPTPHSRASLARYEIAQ

On to `Nc1ncnc2c1ncn2[C@@H]1O[C@H](COP(=O)(O)OP(=O)(O)OP(=O)(O)O)[C@@H](O)[C@H]1O` [[γ-^33P]ATP], for which the “in vitro radiolabelled phosphorylation, SDS-PAGE autoradiography” value in test [1] is “PknA, PknD, PknE, PknG, PknH and PknJ phosphorylated the (His)6-MDH”; in test [2] it was “PknA, PknD, PknE, PknG, PknH and PknJ phosphorylated the (His)6-MDH”; in test [3], “PknA, PknD, PknE, PknG, PknH and PknJ phosphorylated the (His)6-MDH”; in test [4], “the MDH was phosphorylated by PknD, but could not be autophosphorylated”; in test [5] it was “PknA, PknD, PknE, PknG, PknH and PknJ phosphorylated the (His)6-MDH”; in test [6], “PknA, PknD, PknE, PknG, PknH and PknJ phosphorylated the (His)6-MDH”.
